Experimental findings from US12723018B2, “Cinnamoyl amino acid compound and use thereof” (CHINA PHARMACEUTICAL UNIVERSITY, priority 2020, dated 2026) are described below.

The target of one data set is T1, iNOS (Mus musculus, UniProt P29477).
T1 sequence (P29477 1-1144): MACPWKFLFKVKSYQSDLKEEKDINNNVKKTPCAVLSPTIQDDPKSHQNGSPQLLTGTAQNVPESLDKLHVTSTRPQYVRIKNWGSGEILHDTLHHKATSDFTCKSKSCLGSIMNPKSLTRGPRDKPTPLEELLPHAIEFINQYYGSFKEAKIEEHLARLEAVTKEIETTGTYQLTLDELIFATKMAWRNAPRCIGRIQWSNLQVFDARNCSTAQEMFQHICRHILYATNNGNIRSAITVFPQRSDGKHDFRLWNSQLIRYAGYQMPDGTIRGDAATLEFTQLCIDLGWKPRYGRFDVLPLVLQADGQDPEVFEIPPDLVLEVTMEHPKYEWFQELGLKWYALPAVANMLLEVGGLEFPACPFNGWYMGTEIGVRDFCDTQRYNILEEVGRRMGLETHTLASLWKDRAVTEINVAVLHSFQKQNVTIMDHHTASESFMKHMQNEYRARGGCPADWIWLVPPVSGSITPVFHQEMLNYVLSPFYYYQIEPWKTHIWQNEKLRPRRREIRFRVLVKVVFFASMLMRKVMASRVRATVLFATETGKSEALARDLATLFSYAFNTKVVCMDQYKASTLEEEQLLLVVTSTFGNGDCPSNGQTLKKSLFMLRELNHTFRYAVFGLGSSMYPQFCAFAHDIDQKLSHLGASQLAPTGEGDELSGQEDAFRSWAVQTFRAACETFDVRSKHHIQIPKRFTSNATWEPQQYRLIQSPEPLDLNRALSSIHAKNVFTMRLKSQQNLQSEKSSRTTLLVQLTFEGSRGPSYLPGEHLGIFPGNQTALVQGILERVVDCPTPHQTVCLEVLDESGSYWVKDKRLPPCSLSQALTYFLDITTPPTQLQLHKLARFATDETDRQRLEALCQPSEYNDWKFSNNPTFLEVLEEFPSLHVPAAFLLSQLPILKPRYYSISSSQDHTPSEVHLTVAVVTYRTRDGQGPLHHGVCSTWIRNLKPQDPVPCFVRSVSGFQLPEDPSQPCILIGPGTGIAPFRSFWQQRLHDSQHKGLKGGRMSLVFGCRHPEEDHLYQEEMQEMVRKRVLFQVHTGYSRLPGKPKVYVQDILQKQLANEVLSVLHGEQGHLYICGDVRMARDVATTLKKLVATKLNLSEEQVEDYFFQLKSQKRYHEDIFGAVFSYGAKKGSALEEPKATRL
As to the kind of experiment: In vitro iNOS inhibitory effect (iNOS activity detection kit) in LPS-stimulated BV-2 cells. The format is cell-based. The note with it: compound 0.01-10 μM added 4 hours before LPS 500 ng/mL for 24 hours, FIG. 1, read-out: iNOS inhibition IC50. The protocol:
Experimental materials: BV-2 cells (purchased from Shanghai Cell Bank, Chinese Academy of Sciences), DMEM cell culture fluid (Sigma), fetal bovine serum (Gibico), 96-well cell culture plate (Corning), DMSO (Sigma), LPS (Sigma), iNOS activity detection kit (Beyotime), test drug 4-trifluoromethyl-cinnamoyl-4-fluoro-L-phenylalanine prepared in Example 1, and microplate reader.
Then according to the group, the drug or blank culture fluid was added to the corresponding group for culture for 4 hours. Finally, except the blank group, each group was stimulated with LPS with a final concentration of 500 ng/mL for 24 hours. The iNOS activity assay was performed according to the requirements of the iNOS detection kit.

Data set [1] concerns MPTP-induced Parkinsonian mice. As to the kind of experiment: MPTP-induced Parkinsonian mouse rota-rod experiment. The format is in vivo, C57BL/6 male mice. The note with it: 2 mg/kg by gavage for 12 days before MPTP (20 mg/kg i.p. x4); tested 4 h, 24 h, 48 h, 72 h after modeling; FIG. 2. The text has this: Experimental materials: 10-week-old C57BL/6 male mice (Nanjing Qinglongshan Farm), rota-rod treadmill (Beijing Zhongshi Technology), levodopa and MPTP (Sigma), test drug 4-trifluoromethyl-cinnamoyl-4-fluoro-L-phenylalanine prepared in Example 1 (Compound 2 shown), and test drug 4-hydroxy-3-methoxycinnamoyl-L-tyrosine (Compound 1 shown).
Experimental groups: Mice were randomly divided into 5 groups, 10 mice in each group: a blank group, a model group, a 4-hydroxy-3-methoxycinnamoyl-L-tyrosine (Compound 1 shown, 2 mg/kg) group, a 4-trifluoromethyl-cinnamoyl-4-fluoro-L-phenylalanine (Compound 2 shown, 2 mg/kg) group and a levodopa (15 mg/kg) group. Pre-dosing by gavage was carried out for 12 consecutive days. The blank group and the model group were given equal doses of PBS, and modeling was performed on the 13th day. The model group and the drug group were intraperitoneally injected with MPTP (20 mg/kg), once every 2 h, for 4 consecutive injections. After modeling, behavioral tests were carried out. The behavioral performance of mice was tested with a YLS-4C mouse rota-rod treadmill at 4 h, 24 h, 48 h, and 72 h after MPTP modeling. The time from the start of rotation of the rota-rod to the time leaving the rota-rod of the test mice was taken as the latency. The test time was 180 s, and each mouse was tested 3 times to obtain an average value. […]

The test system of data set [2] is MCAO ischemia-reperfusion rats. As to the kind of experiment: Rat ischemia-reperfusion (MCAO) in-vivo model with TTC staining. Particulars: 2 mg/kg by gavage daily, FIG. 3. Also noted: species or system Male SD rats. The text has this: Experimental materials: Male SD rats, weighing 250-300 g, provided by the Model Animal Research Center of Nanjing University and raised in the Experimental Animal Center of China Pharmaceutical University; triphenyl tetrazolium chloride (TTC) and butyphthalide purchased from Sigma; test drug 4-trifluoromethyl-cinnamoyl-4-fluoro-L-phenylalanine prepared in Example 1 (Compound 2 shown), and test drug 4-hydroxy-3-methoxycinnamoyl-L-tyrosine (Compound 1 shown).
Experimental method: The rats were randomly divided into 5 groups, i.e., a blank group, a model group (MCAO group), an MCAO+4-hydroxy-3-methoxycinnamoyl-L-tyrosine (Compound 1 shown, 2 mg/kg) group, an MCAO+4-trifluoromethyl-cinnamoyl-4-fluoro-L-phenylalanine (Compound 2 shown, 2 mg/kg) group and an MCAO+positive drug butyphthalide (5 mg/kg) group. After successful modeling, administration of different doses of compounds by gavage was carried out every day for 15 consecutive days. After the administration, brains were harvested, subjected to TTC staining, and photographed and recorded.
The effect is better than that of the positive drug and 4-hydroxy-3-methoxycinnamoyl-L-tyrosine (Compound 1 shown).

The nature of data set [3]: Physicochemical properties: solubility in solvents.

Structures are written as SMILES.

Regarding `O=C(/C=C/c1ccc(C(F)(F)F)cc1)N[C@@H](Cc1ccc(F)cc1)C(=O)O` [Compound 2, 4-trifluoromethyl-cinnamoyl-4-fluoro-L-phenylalanine], the IC50 (in general, the concentration needed to halve the response being measured) on iNOS came out at 0.11 µM. Besides, the “dyskinesia of the Parkinsonian mice (rota-rod)” value in data set [1] is reported as “effectively alleviate the dyskinesia”. Moreover, in data set [1], the “running time of the Parkinsonian mice (rota-rod latency)” value was “increase the running time”. In data set [2], the “size of cerebral infarction caused by ischemia reperfusion (TTC staining)” value is “effectively reduce the increase in the size of cerebral infarction”. The solubility result is “soluble” in data set [3] (dichloromethane); “easily soluble” in data set [3] (methanol, acetone, ethyl acetate); “insoluble” in data set [3] (petroleum ether, water).
